Where a name gives a salt, the structure may show the parent alone. Read-outs that look alike come from different tables or passages of the source.
Tests used:
[1] = target: T1, human 5-hydroxy-tryptamine2C (h5HT2C) receptor (Homo sapiens, UniProt P28335); assay: 5HT2C Receptor Binding Test Procedure ([125I] DOI)
T1 construct: expressed in transfected cells; host or cells: CHO (Chinese Hamster Ovary) cells; membranes
T1 sequence (P28335 33-458): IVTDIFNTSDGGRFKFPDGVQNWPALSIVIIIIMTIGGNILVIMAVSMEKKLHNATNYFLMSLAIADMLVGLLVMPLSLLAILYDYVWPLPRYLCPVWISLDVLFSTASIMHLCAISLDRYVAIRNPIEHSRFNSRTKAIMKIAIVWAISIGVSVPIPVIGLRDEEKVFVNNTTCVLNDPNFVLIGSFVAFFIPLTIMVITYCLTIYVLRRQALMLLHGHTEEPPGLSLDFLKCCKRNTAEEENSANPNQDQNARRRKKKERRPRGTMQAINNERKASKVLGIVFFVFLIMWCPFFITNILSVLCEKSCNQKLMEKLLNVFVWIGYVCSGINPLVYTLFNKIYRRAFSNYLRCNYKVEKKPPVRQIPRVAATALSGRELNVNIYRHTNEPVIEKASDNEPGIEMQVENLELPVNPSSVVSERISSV

human 5-HT2C receptor = target: T2, human 5-HT2C receptor (Homo sapiens, UniProt P28335); assay: Stimulation of [3H] Inositol Monophosphate Production by 5HT2C Agonists; type: cell-based
T2 construct: expressed in transfected cells; host or cells: CHO cells
T2 sequence (P28335 33-458): T1 sequence (P28335 33-458)
Description: One (1) ml of maintenance medium containing 1 μCi/ml myo-[^3H] inositol was added to each well. After 48 hours labeling, the cells were washed once with 0.5 ml DMEM containing 25 mM HEPES and 10 mM LiCl, then preincubated with the medium for 30 min (antagonists were included in this period if tested). At the end of the preincubation, the medium was removed, the cells were then incubated with test compounds (in presence of antagonists if needed) for 30 min. The reaction was terminated by removal of the incubation solution and addition of 0.5 ml ice-cold 5% PCA, followed by 15 to 30 min incubation on ice. 200 μl of 0.5 M Tes/1.5 M K2CO3 was added to each well to neutralize to pH 7, and plates were left on ice for another 15 to 30 min to precipitate all salts. The liquid and solid phases were separated by centrifugation.
A portion (350 μl) of the upper aqueous phase was applied to Dowex AG-1X8 (formate form, 100-200 mesh) columns. The columns were then washed stepwise with 10 ml of water and 10 ml of 25 mM ammonium formate to remove free myo-[^3H]inositol and deacylated phosphoinositol, respectively. Finally 10 ml of 0.2 M ammonium formate solution was applied to the columns to elute [^3H] inositol monophosphate ([^3H] IP1) directly into scintillation vials. Of this eluate, 1 ml was used to determine radioactivity by scintillation counting.
A 3-parameter logistic function is used to generate estimate of EC50/IC50.

[2] = tested on: food intake in male Sprague-Dawley rats; assay: Effects of Compounds on Feeding Behavior in Rats (food intake, 24 hr fast); type: in vivo; conditions: Rattus norvegicus, dose giving 50% reduction in food intake
Description: Effects of Compounds on Feeding Behavior in Rats
Eight (8) male Sprague-Dawley rats weighing 150-180 g were separated into individual cages and acclimated to a powdered diet for 2 weeks. During this period and throughout the test procedure, the food cup and the animals were weighed daily. Following the acclimation period, animals were fasted for 24 hours and then injected with either vehicle or one of 4 doses of the test compound. Food intake was assessed at 2 and 24 hours following compound administration. Compounds to be evaluated were injected 1-2× per week until all animals had received all doses of the test compound. The order of doses were chosen using to a modified Latin Square design. Additional studies may be conducted in satiated rats at the start of the dark cycle. Compounds were injected i.p, s.c. or p.o. At the end of the study effects of the test compound on food intake was evaluated using a repeated measures ANOVA. Data were collected were 2 hour food intake (g). Data were subjected to one-way ANOVA with posthoc t-tests to assess group differences. Where appropriate, ED50 values were calculated.

[3] = read-out: 5HT2C % Emax (5HT, 100%)
[4] = CHO cells expressing human 5-HT2C, read-out: Stimulation of IP3 (EC50)
[5] = read-out: 5HT2C Affinity DOI/Agonist binding (Ki), [125I] DOI agonist binding

| Compound | Ki [1] | Emax (human 5-HT2C receptor; [3]) | EC50 (human 5-HT2C receptor; [4]) | Ki [1, 5] | further results |
| --- | --- | --- | --- | --- | --- |
| O=C1Nc2ccc(Cl)cc2N2CCNC[C@H]12 (as salt: hydrochloride) [Example 12, (R)-9-Chloro-2,3,4,4a-Tetrahydro-1H-Pyrazino[1,2a]Quinoxalin-5(6H)-One] |  |  |  |  | melting point: 146 to 149 °C |
| Clc1cc2c(cc1Cl)N1CCNC[C@@H]1CN2 (single isomer, unassigned) [Example 5, dihydrochloride] | 0.007 µM | 100% |  |  | EC50 (human 5-HT2C receptor): 0.0338 µM |
| Clc1cc2c(cc1Cl)N1CCNC[C@H]1CN2 (single isomer, unassigned) [Example 6, dihydrochloride] | 0.008 µM | 77% |  |  | EC50 (human 5-HT2C receptor): 0.0232 µM |
| O=C1Nc2cc(Cl)c(Cl)cc2N2CCNCC12 (centres unmarked) [Example 1, 8,9-Dichloro-2,3,4,4a-Tetrahydro-1H-Pyrazino[1,2-a]Quinoxalin-5(6H)-One] | 0.00433 µM | 108% | 0.012 µM |  | ED50 ([2]; ip): 1.91 mg/kg; ED50 ([2]; po): 9.73 mg/kg |
| O=C1Nc2cc(Cl)c(Cl)cc2N2CCNC[C@H]12 [Example 2, (R)-8,9-Dichloro-2,3,4,4a-Tetrahydro-1H-Pyrazino[1,2-a]Quinoxalin-5(6H)-One] | 0.00418 µM | 112% | 0.00792 µM |  | ED50 ([2]; ip): 1.99 mg/kg |
| O=C1Nc2cc(Cl)c(Cl)cc2N2CCNC[C@@H]12 [Example 3, (S)-8,9-Dichloro-2,3,4,4a-Tetrahydro-1H-Pyrazino[1,2-a]Quinoxalin-5(6H)-One] |  | 89% | 0.289 µM | 0.0664 µM |  |
| Clc1cc2c(cc1Cl)N1CCNCC1CN2 (centres unmarked) [Example 4, 8,9-Dichloro-2,3,4,4a,5,6-Hexahydro-1H-Pyrazino[1,2-a]Quinoxaline, dihydrochloride] |  | 99% |  | 0.001 µM | EC50 (human 5-HT2C receptor): 0.00732 µM |
| O=C1Nc2cc(C(F)(F)F)c(Cl)cc2N2CCNCC12 (centres unmarked) [Example 7, 9-Chloro-8-Trifluoromethyl-2,3 4,4a-Tetrahydro-1H-Pyrazino[1,2-a]-Quinoxalin-5(6H)-One, Hydrochloride] | 0.008 µM | 100% | 0.0973 µM |  |  |
| O=C1Nc2cc(C(F)(F)F)c(Cl)cc2N2CCNC[C@@H]12 [Example 8, (S)-9-Chloro-8-Trifluoromethyl-2,3,4,4a-Tetrahydro-1H-Pyrazino[1,2-a]-Quinoxalin-5(6H)-One. Hydrochloride] |  | 85% | 2.61 µM | 0.516 µM |  |
| O=C1Nc2cc(C(F)(F)F)c(Cl)cc2N2CCNC[C@H]12 [Example 9, (R)-9-Chloro-8-Trifluoromethyl-2,3,4,4a-Tetrahydro-1H-Pyrazino[1,2-a]-Quinoxalin-5(6H)-One, Hydrochloride] |  | 100% | 0.0188 µM | 0.025 µM |  |
| O=C1Nc2ccc(Cl)c(Cl)c2N2CCNCC12 (centres unmarked) [Example 10, 9,10-Dichloro-2,3.4,4a-Tetrahydro-1H-Pyrazino[1,2-a]-Quinoxalin-5(6H)-One, Hydrochloride] | 1.04 µM |  |  |  |  |
| Cl.O=C1Nc2c(Cl)cc(Cl)cc2N2CCNCC12 (centres unmarked) [Example 11, 7,9-Dichloro-2,3,4,4A-Tetrahydro-1H-Pyrazino[1,2-a]Quinoxalin-5(6H)-One, Hydrochloride] |  |  |  | 0.0198 µM | Emax (human 5-HT2C receptor; read-out: 5HT2C % Emax (5HT, 100%) at single concentration): 73%; ED50 ([2]; ip): 9.99 mg/kg |
| O=C1Nc2ccc(Cl)cc2N2CCNC[C@H]12 [Example 12, (R)-9-Chloro-2,3,4,4a-Tetrahydro-1H-Pyrazino[1,2a]Quinoxalin-5(6H)-One] | 0.009 µM | 95% |  |  | EC50 (human 5-HT2C receptor): 0.03 µM |
| O=C1Nc2cc(F)c(F)cc2N2CCNCC12 (centres unmarked) [Example 13, 8,9-Difluoro-2,3,4,4a-Tetrahydro-1H-Pyrazino[1,2-a]Quinoxalin-5(6H)-One] |  |  |  | 0.091 µM |  |
| CSc1ccc2c(c1)C(N1CCN(C)CC1)Cc1ccccc1S2 (centres unmarked) [Methiothepin, reference compound] |  |  |  |  | Ki ([1]; reference compounds, [125I] DOI binding, CHO cell membranes, read-out: Ki value and 95% confidence interval): 0.0046 µM |
| COc1cc(CC(C)N)c(OC)cc1I (centres unmarked) [[^125I] DOI, reference compound] |  |  |  |  | Kd ([1]; read-out: dissociation constant, KD of [125I] DOI at the human serotonin 5HT2C receptor, saturation binding with increasing concentrations of [125I] DOI): 0.0004 µM |
